# From ChEMBL document CHEMBL1129375, “Design and synthesis of a series of non-peptide high-affinity human corticotropin-releasing factor1 receptor antagonists” (J Med Chem, 1996)
# Assays:
# [1] = target: T1, Corticotropin-releasing factor receptor 1 (Homo sapiens, UniProt P34998); test: Inhibition of [125I]CRF binding to human Corticotropin releasing factor receptor 1 tested at 6-12 doses
# T1 sequence (P34998 whole entry): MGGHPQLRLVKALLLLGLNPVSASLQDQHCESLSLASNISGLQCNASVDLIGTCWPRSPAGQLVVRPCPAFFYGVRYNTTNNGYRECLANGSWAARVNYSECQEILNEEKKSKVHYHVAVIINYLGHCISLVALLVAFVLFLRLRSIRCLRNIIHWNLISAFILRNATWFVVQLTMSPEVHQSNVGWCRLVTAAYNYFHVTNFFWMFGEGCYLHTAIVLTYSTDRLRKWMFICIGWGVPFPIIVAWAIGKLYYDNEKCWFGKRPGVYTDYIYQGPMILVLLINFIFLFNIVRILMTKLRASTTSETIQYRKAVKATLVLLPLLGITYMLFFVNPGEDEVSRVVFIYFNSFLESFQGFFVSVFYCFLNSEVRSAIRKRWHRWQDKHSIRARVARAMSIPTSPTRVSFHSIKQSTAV
# Homo sapiens = species: Homo sapiens; test: Compound was evaluated for the inhibition of CRF-stimulated cyclic adenosine monophosphate production; format: functional, organism-based
SMILES,Ki [1] [nM],IC50 (Homo sapiens) [nM]
CCCN(CC1CC1)c1nc(C)cc(Nc2c(Cl)cc(Cl)cc2Cl)n1,> 10000,
CCCN(CC1CC1)c1cc(Nc2c(Cl)cc(Cl)cc2Cl)ncn1,> 10000,
CCCN(CC1CC1)c1cc(C)nc(Nc2c(Cl)cc(Cl)cc2Cl)n1,70,
CCCN(CC1CC1)c1nc(C)nc(N(C)c2c(Cl)cc(Cl)cc2Cl)c1C,150,

# Now those with a lower Ki [1], led by results:
Ki [1] [nM],IC50 (Homo sapiens) [nM],SMILES
30,3700,CCCN(CC1CC1)c1cc(Nc2c(Cl)cc(Cl)cc2Cl)nc(C)n1
3.8,,CCCN(CC1CC1)c1nc(C)nc(Nc2c(Cl)cc(Cl)cc2Cl)c1CC
2.5,250,CCCN(CCC)c1nc(C)nc(Nc2c(Cl)cc(Cl)cc2Cl)c1C
2.3,,CCCN(CC1CC1)c1nc(C)nc(Nc2c(Cl)cc(Cl)cc2Cl)c1C
2,,CCCN(CC1CC1)c1nc(C)nc(Nc2c(Cl)cc(Cl)cc2Cl)c1Br
1.7,100,CCCN(CC1CC1)c1nc(C)nc(Nc2c(Cl)cc(Cl)cc2Cl)c1Cl
